Key:
[1] = system: cell lines that carry the translocation t(14;18) (DoHH2, Su-DHL-6, Su-DHL-16, Ly8); test: Viability / apoptosis of human lymphoma lines after in vitro treatment; type: cell-based; details: for induction of apoptosis / cell death in vitro, single agent: FL-derived cell lines, 1 μM; for selectivity for cell lines carrying translocation t(14;18): panel of human lymphoma lines, viability after 24 h
Method: Cell culture, cell cycle and viability assays. Lymphoma cell lines DoHH2, Ly-8, Su-DHL-6, Su-DHL-16, Su-DHL-8 and Su-DHL-10 were maintained in RPMI 1640 with 10% fetal bovine serum, 1% L-Glutamine and 1% penicillin/streptomycin. […] Briefly, cells were seed at 5×10^5 per mL and they were treated with PD-0332991 and/or ABT-737 and/or Obatoclax. After 24 h of treatment cell viability was assessed using CellTiter-Glo reagent (Promega).

[2] = system: xenografted DoHH2 tumors; test: DoHH2 xenograft treatment study; type: in vivo, NOD/SCID mice; details: for course of tumors after the treatment course / durability of response / tumor growth during the treatment course: PD 150 mg/kg p.o., ABT 50 mg/kg i.v., alternate days, days 1-14
Method: Xenografts and treatment studies. Xenograft mice were generated as described (Schatz et al., J Exp Med 208:1799-1807 (2011)); briefly, s.c. injection of 5 Mio DoHH2 or SU-DHL-8 human lymphoma cells mixed with matrigel (BD Bioscience, 354230) into the flanks of NOD/SCID (NOD.CB17-Prkdc^scid/J) mice. […] The control animals were treated with 50 mmol/L sodium lactate (pH4), PTD solution and 5% of Dextrose in water solution respectively. Tumors were weighed and volumes were measured twice weekly.
The translocation t(14;18) is the cytogenetic hallmark of FL and promotes lymphoma cell survival by activating the anti-apoptotic BCL2 protein. BH3 mimetic drugs like ABT-737 block BCL2 function by inserting into the BH3-binding groove of anti-apoptotic BCL2 proteins (Oltersdorf et al., Nature 435:677-681 (2005)).

[3] = system: DoHH2, Su-DHL6, Su-DHL-16, and Ly8 cells; test: Cell cycle assay in human lymphoma cell lines; type: cell-based
Method: Cell culture, cell cycle and viability assays. Lymphoma cell lines DoHH2, Ly-8, Su-DHL-6, Su-DHL-16, Su-DHL-8 and Su-DHL-10 were maintained in RPMI 1640 with 10% fetal bovine serum, 1% L-Glutamine and 1% penicillin/streptomycin. Human lymphoma cell lines treated with PD-0332991 and Obatoclax were analyzed for cell viability and cell cycle assays. Briefly, cells were seed at 5×10^5 per mL and they were treated with PD-0332991 and/or ABT-737 and/or Obatoclax. After 24 h of treatment cell viability was assessed using CellTiter-Glo reagent (Promega). Cell cycle assay based on uptake of DNA staining dye using Cell Cycle Reagent assays (cat. 4700-0169 from Guava Technologies, Millipore) was performed following to manufacturer instructions.

[4] = system: RB phosphorylation (Ser 780); test: Immunoblot for RB phosphorylation in treated lymphoma cells; type: cell-based, human; details: DoHH2, Su-DHL6, Su-DHL-16, Ly8 cells treated with PD-0332991
Method: Western blot analysis. Immunoblots were performed from whole cell lysates or tissue samples as described (Steidl et al., Nature 471:377-381 (2011)). Briefly, 30 μg of protein/sample were resolved on SDS-PAGE gels and transferred to Immobilon-P-membranes (Millipore). Antibodies were against Rb (Cell Signaling cat #9309), Phospho-Rb S780 (Cell Signaling cat #3590), Phospho-Rb S795 (Cell Signaling cat #7986), CDK4 (Cell Signaling cat #2906), CyclinD3 (Cell Signaling cat #2936), Cyclin D1 (Cell Signaling cat #2926), Cyclin D2 (Cell Signaling cat #2924) p16 (Santa Cruz Biotechnology cat # sc 1207), Caspase 3 (Cell Signaling cat #9662) Tubulin (1:5000; Sigma, B-5-1-2). Enhanced chemiluminescence was used for detection (ECL, Amersham).

[5] = system: vavBcl2/CDK4 lymphoma; test: Treatment of primary murine vavBcl2/CDK4 lymphomas in vivo; details: lymphocyte counts
[6] = system: vavBcl2/c-MYC lymphomas; test: Treatment of primary murine vavBcl2/c-MYC lymphomas in vivo
Method: Generation of mice. The vavP Bcl2 mouse model of FL (Lowe et al., Nature 432:307-315 (2004)) was adapted to adoptive transfer of retrovirally transduced HPCs^1. Data were analyzed in Kaplan-Meier format using the log-rank (Mantel-Cox) test for statistical significance. H&E, Ki67, TUNEL, P-RB, and surface marker analysis were as in (Staudt, N Engl J Med 356:741-742 (2007)).
Most FL cell lines are derived from transformed FLs and are carry the hallmark translocation t(14;18). These include DoHH2, Su-DHL-6, Su-DHL-16 and Ly 8 cells. These lines also have high levels of CDK4, CDK6, and phosphorylated RB (S780 and S795) (FIG. 10A) and DoHH2 cells carry a homozygous p16 deletion (Gronbaek et al., Leukemia 14:1727-1735 (2000)). To examine the effect of targeted therapies, the inventors first treated DoHH2, Su-DHL6, Su-DHL-16, and Ly8 cells with increasing doses of PD-0332991. […] Further, knockdown of either CDK4 or CDK6 alone was not sufficient for cell cycle arrest indicating functional compensation between these homologous RB kinases and the requirement to block both (FIG. 10I/J). Given the limitations of transformed FL-derived lines, the inventors also tested PD-0332991 against primary murine vavBcl2 induced lymphomas in vivo.

| Structure (SMILES) | induction of apoptosis / cell death in vitro, single agent [1] | selectivity for cell lines carrying translocation t(14;18) [1] | course of tumors after the treatment course / durability of response [2] | tumor growth during the treatment course [2] | cell death in tumors in vivo (caspase cleavage, TUNEL) ([2]; tumors at end of treatment) | cell cycle arrest after RB knockdown ([3]; DoHH2 cells expressing RB shRNA, PD-0332991 1 μM) | growth and cell cycle profile ([3]; increasing doses of PD-0332991, 24 h, all four lines) | RB phosphorylation in cells [4] | RB phosphorylation (Ser 780) in tumors in vivo ([2]; immunoblot on lysates of treated tumors) | proliferation by Ki67 in tumors in vivo ([2]; immunohistochemistry at end of treatment) | response of lymphoma bearing animals [5] | response of lymphoma bearing animals ([6]; histologically transformed vavBcl2/c-MYC lymphomas) | time by which all animals succumbed to disease ([6]; vav-Bcl2/Myc tumor bearing animals treated with PD-0332991) |
| --- | --- | --- | --- | --- | --- | --- | --- | --- | --- | --- | --- | --- | --- |
| CN(C)CC[C@H](CSc1ccccc1)Nc1ccc(S(=O)(=O)NC(=O)c2ccc(N3CCN(Cc4ccccc4-c4ccc(Cl)cc4)CC3)cc2)cc1[N+](=O)[O-] [ABT-737] | powerfully induced apoptosis and caspase cleavage | selective activity against cell lines that carry the translocation t(14;18) | residual tumors rapidly expanded thereafter | somewhat restrained tumor growth | significant cell death |  |  |  |  |  |  |  |  |
| COC1=CC(c2cc3ccccc3[nH]2)=N/C1=C\c1[nH]c(C)cc1C [Obatoclax] | potently induced cell death | less selective for cells carrying the translocation t(14;18) |  |  |  |  |  |  |  |  |  |  |  |
| CC(=O)c1c(C)c2cnc(Nc3ccc(N4CCNCC4)cn3)nc2n(C2CCCC2)c1=O [PD-0332991] |  |  | residual tumors rapidly expanded thereafter | somewhat restrained tumor growth |  | knockdown of RB bypassed the cell cycle arrest | complete growth arrest and accumulation in the G1 phase | loss of RB phosphorylation | complete loss of RB phosphorylation (Ser 780) | slowed proliferation by Ki67 | induced responses | ineffective | ≤ 10 days |
